US20230286973A1, “PROTEIN SECRETION INHIBITORS” (KEZAR LIFE SCIENCES, priority 2020, published 2023)

Key:
[1] = system: PD1-ss+10aa/Gaussia Luciferase; assay: Dox-Induced PD1-ss-Gluc Assay; format: cell-based; details: 24 hr Dox induction; 293FRT/TO cells; mean; read-out: 24 hr Dox Inducible PD1ssGluc 293FRT/TO: Mean IC50
Outline: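 Flp-In 293 T-REx cells stably carrying a doxycycline-inducible Gaussia luciferase fused to the PD1 signal sequence plus 10 aa were plated the day before. Compound dilutions in DMSO/media containing doxycycline were then added and incubated at 37 °C, 5% CO2. Data for undefined stereochemistry refer to stereoisomer mixtures.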

[2] = system: multiple myeloma cell line NCI-H929; assay: H929 Cell Viability Assay; format: cell-based, human; details: Homo sapiens, NCI-H929, 48 h, NCI-H929 cells, Celltiter-Glo
Outline: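 Luminescent CellTiter-Glo read-out of viability after a 48 h exposure (37° C, 5% CO2) of NCI-H929 myeloma cells to compound dilutions in RPMI 1640 plus 10% FBS. Data for structures drawn without stereochemistry refer to stereoisomer mixtures.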

[3] = system: IL-2-FL/Gaussia Luciferase; assay: Dox Induced IL2-FL-Gluc Assay; format: cell-based; details: for IC50: 24 hr Dox induction, 293FRT/TO cells, mean, read-out: 24 hr Dox Inducible IL2FLGluc 293FRT/TO: Mean IC50; for 24 hr Dox Inducible IL2FLGluc 293FRT/TO: IL2/PD1: ratio of IL2FLGluc IC50 to PD1ssGluc IC50, '<=>' given where both are I.A.
Outline: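 Compounds in DMSO/medium with doxycycline were applied to a 293 T-REx stable line expressing an IL-2 (aa 1-153)–Gaussia luciferase fusion under tetracycline-regulated control, cells seeded one day earlier; incubation at 37 °C, 5% CO2. Structures drawn without stereochemistry were tested as stereoisomer mixtures.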

[4] = Liver Microsome Stability Assay (rat); details: rat liver microsomes, with NADPH, 1.0 uM compound
Description: (§1) Stability of a compound was assessed in the presence of liver microsomes from various sources—mouse, rat, monkey and human liver microsomes. 1.0 uM compound, 0.4% DMSO in 0.1 M Potassium Phosphate with 1.0 mg/mL liver microsomes, were incubated at 37° C. with or without 1 mM NADPH. The samples were quenched at 0, and 30 minutes.

[5] = system: TNFα-FL/Gaussia Luciferase; assay: Dox Induced TNFα-FL-Gluc Assay; format: cell-based; details: for IC50: 24 hr Dox induction, 293FRT/TO cells, mean, read-out: 24 hr Dox Inducible TNFaFLGluc 293FRT/TO: Mean IC50; for 24 hr Dox Inducible TNFaFLGluc 293FRT/TO: TNF/PD1: ratio of TNFaFLGluc IC50 to PD1ssGluc IC50, '<=>' given where both are I.A.
Outline: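 Compound was added with doxycycline to cells plated a day earlier, incubating at 37° C under 5% CO2. The reporter line is 293 T-REx expressing a TNFα (1-233)–Gaussia luciferase fusion under tetracycline-regulated control.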

[6] = Liver Microsome Stability Assay (human); details: human liver microsomes, with NADPH, 1.0 uM compound
Description: as §1

[7] = system: multiple myeloma cell line U266B1; assay: U266 Cell Viability Assay; format: cell-based, human; details: Homo sapiens, U-266, 48 h, U266B1 cells, Celltiter-Glo
Outline: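 CellTiter-Glo luminescence was read after a 48 h compound exposure (37 °C, 5% CO2) of human U266B1 myeloma cells grown in 10% FBS-supplemented RPMI 1640. Data for structures shown without defined stereochemistry refer to stereoisomer mixtures.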

[8] = Liver Microsome Stability Assay (monkey); details: monkey liver microsomes, with NADPH, 1.0 uM compound
Description: as §1

[9] = Liver Microsome Stability Assay (mouse); details: mouse liver microsomes, with NADPH, 1.0 uM compound
Description: as §1

[10] = system: HER3-ss+4aa/Gaussia Luciferase; assay: Dox-Induced Her3-ss-Gluc Assay; format: cell-based; details: 24 hr Dox induction; 293FRT/TO cells; mean; read-out: 24 hr Dox Inducible Her3(ss + 4)Gluc 293FRT/TO: Mean IC50
Outline: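 Compounds were diluted in DMSO/media containing doxycycline. They were added to Flp-In 293 T-REx cells plated the previous day, then incubated at 37 °C under 5% CO2. These cells stably express, under T-REx control, Gaussia luciferase fused to the HER3 signal sequence plus 4 amino acids.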

SMILES	IC50 [1] [µM]	EC50 [2] [µM]	IC50 [3] [µM]	24 hr Dox Inducible IL2FLGluc 293FRT/TO: IL2/PD1 [3]	Liver Microsome Stability (Multiple Species): Rat - % Remaining after 30 min w/NADPH [4] [%]	IC50 [5] [µM]	24 hr Dox Inducible TNFaFLGluc 293FRT/TO: TNF/PD1 [5]	Liver Microsome Stability (Multiple Species): Human - % Remaining after 30 min w/NADPH [6] [%]	EC50 [7] [µM]	Liver Microsome Stability (Multiple Species): Monkey - % Remaining after 30 min w/NADPH [8] [%]	Liver Microsome Stability (Multiple Species): Mouse - % Remaining after 30 min w/NADPH [9] [%]	IC50 [10] [µM]
COc1ccc(O[C@@H]2CC[C@H](c3csc(NC(=O)c4cccn4Cc4ccncc4)n3)C2)nc1 [Compound E42, N-(4-((1S,3R)-3-((5-methoxypyridin-2-yl)oxy)cyclopentyl)thiazol-2-yl)-1-(pyridin-4-ylmethyl)-1H-pyrrole-2-carboxamide]	0.473	17.3	2.59	5.5	0.38	8.11	17.2	0.09	> 25	0.26	0.18	1.12
O=C(Nc1nc([C@@H]2CCN(c3ccccn3)C2)cs1)c1cccn1Cc1ccncc1 [Compound E43, (R)-N-(4-(1-(pyridin-2-yl)pyrrolidin-3-yl)thiazol-2-yl)-1-(pyridin-4-ylmethyl)-1H-pyrrole-2-carboxamide]	1.14	16.7	10.9	9.6	0.9	21.4	18.8	0.28	20.3	0.35	0.5	3.15
O=C(Nc1nc([C@H]2CCN(c3ccccn3)C2)cs1)c1cccn1Cc1ccncc1 [Compound E44, (S)-N-(4-(1-(pyridin-2-yl)pyrrolidin-3-yl)thiazol-2-yl)-1-(pyridin-4-ylmethyl)-1H-pyrrole-2-carboxamide]	0.453	22.9	2.72	6	0.72	11.6	25.5	0.5	> 25	0.59	0.24	1.32
O=C(Nc1nc([C@H]2CCCN(c3ccccn3)C2)cs1)c1cccn1Cc1ccncc1 [Compound E45, (S)-N-(4-(1-(pyridin-2-yl)piperidin-3-yl)thiazol-2-yl)-1-(pyridin-4-ylmethyl)-1H-pyrrole-2-carboxamide]	0.531	17.3	2.37	4.5	1.2	6.03	11.4	0.19	14.3	0.23	2.25	1.45
O=C(Nc1nc([C@H]2CCCN2c2cccnc2)cs1)c1cccn1Cc1ccncc1 [Compound E46, (R)-N-(4-(1-(pyridin-3-yl)pyrrolidin-2-yl)thiazol-2-yl)-1-(pyridin-4-ylmethyl)-1H-pyrrole-2-carboxamide]	0.0291	3.65	0.115	3.9	1.85	0.529	18.1	7.36	> 25	0.6	22.1	0.0604
O=C(Nc1nc([C@@H]2CCCN(c3ccccn3)C2)cs1)c1cccn1Cc1ccncc1 [Compound E47, (R)-N-(4-(1-(pyridin-2-yl)piperidin-3-yl)thiazol-2-yl)-1-(pyridin-4-ylmethyl)-1H-pyrrole-2-carboxamide]	0.547	10.4	1.44	2.6	2.13	4.06	7.43	0.57	13.9	5.23	0.55	1.43
O=C(Nc1nc([C@H]2CCCN2c2ccncc2)cs1)c1cccn1Cc1ccncc1 [Compound E48, (R)-N-(4-(1-(pyridin-4-yl)pyrrolidin-2-yl)thiazol-2-yl)-1-(pyridin-4-ylmethyl)-1H-pyrrole-2-carboxamide]	7.89	> 25	7.83	0.99	0.45	> 25	>3.17	0.93	> 25	0.12	2.74	13.5
O=C(NC1=NC(CCc2ccccc2)CS1)c1cccn1Cc1ccncc1 (stereo not drawn) [Compound E50]	1.96	> 25	5.56	2.8	0.64	> 25	>12.8	0.06	> 25	0.08	0.23	4.37
